Active and inactive are the calls of the source. The rule behind the calls is not given here.
How the values were obtained:
[1] = target: Exportin-1 (Homo sapiens) (UniProt O14980); assay: Inhibition of CRM1 in human NCI-H929 cells assessed as increase in nuclear localization of Top2alpha at 50 uM incubated for 2 hrs by Western blot analysis; type: cell-based
[2] = system: RPMI-8226; assay: Effect on Top2alpha protein levels in human RPMI8226 cells at 25 uM incubated for 20 hrs by Western blot analysis; type: cell-based; details: rpmi-8226, 20 h
[3] = target: DNA topoisomerase 2-alpha (Homo sapiens) (UniProt P11388); assay: Inhibition of nuclear export signal of topoisomerase 2alpha in human NCI-H929 cells assessed as reduction in cytoplasmic localization of Top2alpha at 100 uM incubated for 24 hrs by Western blot analysis; type: cell-based
[4] = target: DNA topoisomerase 2-alpha (Homo sapiens) (UniProt P11388); assay: Binding affinity to nuclear export signal of topoisomerase 2alpha in human KG1a cells assessed as potentiation of doxorubicin-induced apoptosis by measuring increase in cleaved caspase-3 levels at 25 uM pre-incubated for 20 hrs followed by addition of doxorubicin for 4 hrs; type: cell-based
[5] = target: DNA topoisomerase 2-alpha (Homo sapiens) (UniProt P11388); assay: Binding affinity to nuclear export signal of topoisomerase 2alpha in human PBMC cells assessed as potentiation of doxorubicin-induced apoptosis by measuring increase in cleaved caspase-3 levels at 25 uM pre-incubated for 20 hrs followed by addition of doxorubicin for 4 hrs; type: cell-based
[6] = target: DNA topoisomerase 2-alpha (Homo sapiens) (UniProt P11388); assay: Binding affinity to nuclear export signal of topoisomerase 2alpha in human NCI-H929 cells assessed as potentiation of doxorubicin-induced apoptosis by measuring increase in cleaved caspase-3 levels at 25 uM pre-incubated for 20 hrs followed by addition of doxorubicin for 4 hrs; type: cell-based
[7] = target: DNA topoisomerase 2-alpha (Homo sapiens) (UniProt P11388); assay: Binding affinity to nuclear export signal of topoisomerase 2alpha in human WI38 cells assessed as potentiation of doxorubicin-induced apoptosis by measuring increase in cleaved caspase-3 levels at 25 uM pre-incubated for 20 hrs followed by addition of doxorubicin for 4 hrs; type: cell-based
[8] = target: Cellular tumor antigen p53 (Homo sapiens) (UniProt P04637); assay: Inhibition of p53 nuclear export in human NCI-H929 cells at 25 uM incubated for 20 hrs by Western blot analysis; type: cell-based
[9] = target: DNA topoisomerase 2-alpha (Homo sapiens) (UniProt P11388); assay: Binding affinity to nuclear export signal of topoisomerase 2alpha in human HL60 cells assessed as potentiation of doxorubicin-induced apoptosis by measuring increase in cleaved caspase-3 levels at 25 uM pre-incubated for 20 hrs followed by addition of doxorubicin for 4 hrs; type: cell-based
[10] = target: DNA topoisomerase II (Homo sapiens) (UniProt P11388+Q02880); assay: Inhibition of decatenation activity of human topoisomerase 2 using kinetoplast DNA up to 50 uM incubated for 30 mins by agarose gel electrophoresis; type: protein assay
[11] = system: NCI-H929; assay: Induction of apoptosis in human NCI-H929 cells assessed as increase in cleaved caspase-3 levels at 25 uM incubated for 20 hrs; type: functional, cell-based
[12] = target: DNA topoisomerase 2-alpha (Homo sapiens) (UniProt P11388); assay: Binding affinity to nuclear export signal of topoisomerase 2alpha in human U266 cells assessed as potentiation of doxorubicin-induced apoptosis by measuring increase in cleaved caspase-3 levels at 25 uM pre-incubated for 20 hrs followed by addition of doxorubicin for 4 hrs; type: cell-based
[13] = target: DNA topoisomerase 2-alpha (Homo sapiens) (UniProt P11388); assay: Binding affinity to nuclear export signal of topoisomerase 2alpha in human Flow 2000 cells assessed as potentiation of doxorubicin-induced apoptosis by measuring increase in cleaved caspase-3 levels at 25 uM pre-incubated for 20 hrs followed by addition of doxorubicin for 4 hrs; type: cell-based
[14] = system: U-266; assay: Induction of apoptosis in human U266 cells assessed as increase in cleaved caspase-3 levels at 25 uM incubated for 20 hrs; type: functional, cell-based
[15] = target: DNA topoisomerase 2-alpha (Homo sapiens) (UniProt P11388); assay: Binding affinity to nuclear export signal of topoisomerase 2alpha in human MCF7 cells assessed as potentiation of doxorubicin-induced apoptosis by measuring increase in cleaved caspase-3 levels at 25 uM pre-incubated for 20 hrs followed by addition of doxorubicin for 4 hrs; type: cell-based
[16] = system: RPMI-8226; assay: Induction of apoptosis in human RPMI8226 cells assessed as increase in cleaved caspase-3 levels at 25 uM incubated for 20 hrs; type: functional, cell-based
[17] = target: DNA topoisomerase 2-alpha (Homo sapiens) (UniProt P11388); assay: Binding affinity to nuclear export signal of topoisomerase 2alpha in human RPMI8226 cells assessed as potentiation of doxorubicin-induced apoptosis by measuring increase in cleaved caspase-3 levels at 25 uM pre-incubated for 20 hrs followed by addition of doxorubicin for 4 hrs; type: cell-based
[18] = target: DNA topoisomerase 2-alpha (Homo sapiens) (UniProt P11388); assay: Inhibition of nuclear export signal of topoisomerase 2alpha in human NCI-H929 cells assessed as reduction in Top2alpha binding to CRM1 at 25 uM incubated for 20 hrs by Western blot analysis and co-immunoprecipitation analysis; type: cell-based
[19] = target: DNA topoisomerase 2-alpha (Homo sapiens) (UniProt P11388); assay: Inhibition of nuclear export signal of topoisomerase 2alpha in human NCI-H929 cells assessed as increase in nuclear localization of Top2alpha at 50 uM incubated for 2 hrs by Western blot analysis; type: cell-based

Cellular tumor antigen p53 (Homo sapiens), sequence (P04637 whole entry, looked up): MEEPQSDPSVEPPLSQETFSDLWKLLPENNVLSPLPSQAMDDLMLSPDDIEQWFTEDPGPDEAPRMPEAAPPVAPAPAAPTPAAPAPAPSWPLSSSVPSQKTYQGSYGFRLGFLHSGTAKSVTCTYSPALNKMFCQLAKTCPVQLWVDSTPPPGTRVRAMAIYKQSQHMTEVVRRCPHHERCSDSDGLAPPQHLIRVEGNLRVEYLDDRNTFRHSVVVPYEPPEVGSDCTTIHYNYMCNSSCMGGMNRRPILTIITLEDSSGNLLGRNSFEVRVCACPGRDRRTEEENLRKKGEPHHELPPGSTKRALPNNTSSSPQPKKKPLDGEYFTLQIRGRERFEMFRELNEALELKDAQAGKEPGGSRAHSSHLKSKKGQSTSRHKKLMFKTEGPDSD
DNA topoisomerase 2-alpha (Homo sapiens), sequence (P11388 whole entry): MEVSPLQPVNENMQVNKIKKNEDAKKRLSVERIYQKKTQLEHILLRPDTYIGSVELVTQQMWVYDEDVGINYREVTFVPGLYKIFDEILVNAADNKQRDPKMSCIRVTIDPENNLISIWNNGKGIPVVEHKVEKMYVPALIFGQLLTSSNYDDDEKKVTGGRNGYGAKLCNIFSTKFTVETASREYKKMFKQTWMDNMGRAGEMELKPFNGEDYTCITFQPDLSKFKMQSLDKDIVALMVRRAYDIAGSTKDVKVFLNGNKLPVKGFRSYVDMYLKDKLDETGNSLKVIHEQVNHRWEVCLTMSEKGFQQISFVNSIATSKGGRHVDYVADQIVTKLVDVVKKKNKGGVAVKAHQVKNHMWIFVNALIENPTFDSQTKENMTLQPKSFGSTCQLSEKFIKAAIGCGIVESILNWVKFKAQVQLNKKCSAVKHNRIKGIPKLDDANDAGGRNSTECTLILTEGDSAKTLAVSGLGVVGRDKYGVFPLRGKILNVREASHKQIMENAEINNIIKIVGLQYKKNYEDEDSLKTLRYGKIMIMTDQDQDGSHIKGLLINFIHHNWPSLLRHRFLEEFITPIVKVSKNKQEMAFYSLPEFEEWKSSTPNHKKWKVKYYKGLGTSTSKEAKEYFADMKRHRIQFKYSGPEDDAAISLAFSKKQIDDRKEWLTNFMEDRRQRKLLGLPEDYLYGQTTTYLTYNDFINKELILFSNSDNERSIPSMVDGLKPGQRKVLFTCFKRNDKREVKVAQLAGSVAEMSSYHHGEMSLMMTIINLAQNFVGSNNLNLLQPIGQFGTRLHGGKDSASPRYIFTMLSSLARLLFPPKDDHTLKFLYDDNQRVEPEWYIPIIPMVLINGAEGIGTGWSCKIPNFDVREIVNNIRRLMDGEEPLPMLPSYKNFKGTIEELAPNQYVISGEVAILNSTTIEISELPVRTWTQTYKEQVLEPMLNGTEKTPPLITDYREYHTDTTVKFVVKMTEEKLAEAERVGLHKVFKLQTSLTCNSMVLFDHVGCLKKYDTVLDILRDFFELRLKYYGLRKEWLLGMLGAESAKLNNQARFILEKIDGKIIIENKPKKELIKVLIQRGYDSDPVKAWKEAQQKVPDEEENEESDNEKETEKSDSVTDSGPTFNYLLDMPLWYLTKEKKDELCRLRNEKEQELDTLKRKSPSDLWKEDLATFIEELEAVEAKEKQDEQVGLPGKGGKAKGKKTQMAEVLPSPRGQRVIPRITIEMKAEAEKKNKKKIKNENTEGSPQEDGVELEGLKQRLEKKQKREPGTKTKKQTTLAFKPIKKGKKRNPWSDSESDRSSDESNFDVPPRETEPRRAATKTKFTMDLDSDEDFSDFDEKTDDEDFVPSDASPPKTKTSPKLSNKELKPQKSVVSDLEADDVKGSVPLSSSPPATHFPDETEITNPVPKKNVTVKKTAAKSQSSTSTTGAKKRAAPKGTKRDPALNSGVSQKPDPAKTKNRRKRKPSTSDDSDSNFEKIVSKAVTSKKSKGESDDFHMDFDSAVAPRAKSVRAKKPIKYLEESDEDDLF
Exportin-1 (Homo sapiens), sequence (O14980 whole entry): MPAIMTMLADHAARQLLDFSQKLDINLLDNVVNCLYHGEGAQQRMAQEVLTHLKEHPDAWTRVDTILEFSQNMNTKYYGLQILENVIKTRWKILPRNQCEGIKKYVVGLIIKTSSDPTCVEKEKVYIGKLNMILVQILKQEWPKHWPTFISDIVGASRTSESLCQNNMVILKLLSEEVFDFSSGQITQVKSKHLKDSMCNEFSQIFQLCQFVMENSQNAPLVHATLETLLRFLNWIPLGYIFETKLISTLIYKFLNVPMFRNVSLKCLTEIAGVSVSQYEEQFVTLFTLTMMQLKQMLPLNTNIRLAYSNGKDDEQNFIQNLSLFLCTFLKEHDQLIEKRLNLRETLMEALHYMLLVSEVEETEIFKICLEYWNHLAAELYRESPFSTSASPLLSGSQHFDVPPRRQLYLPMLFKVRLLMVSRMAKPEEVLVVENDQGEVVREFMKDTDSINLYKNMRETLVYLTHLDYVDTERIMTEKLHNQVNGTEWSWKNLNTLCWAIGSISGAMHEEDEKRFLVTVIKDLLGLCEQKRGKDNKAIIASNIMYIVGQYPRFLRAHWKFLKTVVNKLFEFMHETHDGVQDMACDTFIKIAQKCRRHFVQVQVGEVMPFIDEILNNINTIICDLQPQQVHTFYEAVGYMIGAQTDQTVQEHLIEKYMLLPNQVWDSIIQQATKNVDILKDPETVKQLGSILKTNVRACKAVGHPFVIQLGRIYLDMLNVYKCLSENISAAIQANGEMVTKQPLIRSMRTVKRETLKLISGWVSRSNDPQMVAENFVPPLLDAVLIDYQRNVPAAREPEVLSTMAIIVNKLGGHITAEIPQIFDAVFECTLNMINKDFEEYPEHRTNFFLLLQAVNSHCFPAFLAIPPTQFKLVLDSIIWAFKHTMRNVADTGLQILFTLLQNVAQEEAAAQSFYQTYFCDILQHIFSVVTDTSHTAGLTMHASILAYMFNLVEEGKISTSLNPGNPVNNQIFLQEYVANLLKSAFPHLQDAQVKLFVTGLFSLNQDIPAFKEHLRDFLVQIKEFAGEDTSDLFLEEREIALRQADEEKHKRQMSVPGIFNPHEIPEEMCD

| inhibition [3] | Activity [6] | Activity [12] | Activity [17] | SMILES | inhibition [1] | Activity [2] | inhibition [4] | inhibition [5] | inhibition [7] | inhibition [8] | inhibition [9] | inhibition [10] | Activity [11] | inhibition [13] | Activity [14] | inhibition [15] | Activity [16] | inhibition [18] | inhibition [19] |
| --- | --- | --- | --- | --- | --- | --- | --- | --- | --- | --- | --- | --- | --- | --- | --- | --- | --- | --- | --- |
| Active | Active | Active | Active | O=C(Nc1ccc(C2=NCCN2)cc1)c1ccc(C(=O)Nc2ccc(C3=NCCN3)cc2)c([N+](=O)[O-])c1 |  | Non-Toxic | inactive | inactive | inactive | inactive | inactive | inactive | inactive | inactive | inactive | Active | inactive |  |  |
|  | Active | Active | Active | COCN1CCC2N(COC)CCC3N(COC)CCC1N23 (stereo unspecified) |  |  |  |  |  |  |  |  | inactive |  | inactive |  | inactive |  |  |
| inactive |  |  |  | O=C(C[N+]12CN3CN(CN(C3)C1)C2)c1ccc(Br)cc1 |  |  |  |  |  |  |  |  |  |  |  |  |  |  |  |
|  | Active | Active | Active | C1CN2C(=N1)N1CCN=C1N1CCN=C21 |  |  |  |  |  |  |  |  | inactive |  | inactive |  | inactive |  |  |
| inactive | Active | Active | Active | Clc1cc(Cl)c(C[N+]23CN4CN(CN(C4)C2)C3)cc1Cl |  | Non-Toxic | inactive | inactive | inactive | inactive | inactive | inactive | inactive | inactive | inactive | Active | inactive |  |  |

More lines, now with the values behind:

| SMILES | inhibition [3] | Activity [6] | Activity [12] | Activity [17] | inhibition [1] | Activity [2] | inhibition [4] | inhibition [5] | inhibition [7] | inhibition [8] | inhibition [9] | inhibition [10] | Activity [11] | inhibition [13] | Activity [14] | inhibition [15] | Activity [16] | inhibition [18] | inhibition [19] |
| --- | --- | --- | --- | --- | --- | --- | --- | --- | --- | --- | --- | --- | --- | --- | --- | --- | --- | --- | --- |
| C/C=C/[C@@H]1O[C@H]([C@H](O)/C=C/C=C/C[C@@H](C)/C=C(\C=C\[C@H]2CC=CC(=O)O2)CC)C[C@@H](O)[C@@H]1C |  |  |  |  | Active |  |  |  |  |  |  |  |  |  |  |  |  |  |  |
| Brc1ccc(C[N+]23CN4CN(CN(C4)C2)C3)cc1 | Active | Active | Active | Active |  | Non-Toxic | inactive | inactive | inactive | Active | inactive | inactive | inactive | inactive | inactive | Active | inactive |  |  |
| c1ccc(C2NNC(c3ccccc3)NN2)cc1 (stereo unspecified) |  | Active | Active | Active |  |  |  |  |  |  |  |  | inactive |  | inactive |  | inactive |  |  |
| O=C1c2ccccc2C(=O)C1C(=O)C(c1ccccc1)c1ccccc1 [DIPHENADIONE] | Active | Active | Active | Active |  | Non-Toxic | inactive | inactive | inactive | inactive | inactive | inactive | inactive | inactive | inactive | Active | inactive | Active | Active |

— ChEMBL document CHEMBL4421723, “Novel drug targets to overcome de novo drug-resistance in multiple myeloma” (2013)
